# Assay results taken from PMC10321483 (Chemical Science, 2023).
# Several values for one entry are separate records, joined by “and”; a condition that tells them apart may be missing. Identical values can stand only once.
# Biological target: T1, LdtMt2 (Mycobacterium tuberculosis, UniProt I6Y9J2)
# Assay: biochemical
# Assay type: biochemical
# Design: made in house; host or cells: E. coli
# Conditions: Table S4 HTS validation; 30 minutes inhibitor pre-incubation; n=6; read-out: pIC50 LdtMt2 (mean ± SD) (converted)
# T1 sequence (I6Y9J2 56-408): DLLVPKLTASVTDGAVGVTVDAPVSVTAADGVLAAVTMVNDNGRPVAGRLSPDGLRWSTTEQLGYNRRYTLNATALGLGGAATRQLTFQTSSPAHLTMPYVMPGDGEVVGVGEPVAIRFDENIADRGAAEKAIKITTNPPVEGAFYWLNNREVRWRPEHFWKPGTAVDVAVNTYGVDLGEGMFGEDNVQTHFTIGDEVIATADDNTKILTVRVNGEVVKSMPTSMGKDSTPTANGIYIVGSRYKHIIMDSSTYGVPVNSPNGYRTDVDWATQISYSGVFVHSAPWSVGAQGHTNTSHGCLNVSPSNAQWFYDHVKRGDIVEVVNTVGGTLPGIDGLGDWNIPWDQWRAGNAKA
row,SMILES,IC50 [nM]
1,"Cc1onc(-c2ccccc2)c1C(=O)N[C@@H]1C(=O)N2[C@@H]1SC(C)(C)[C@@H]2C(=O)O [Oxacillin, reference compound]",6030
2,"C[C@@H](O)[C@H]1C(=O)N2C(C(=O)O)=C(S[C@@H]3CN[C@H](C(=O)Nc4cccc(C(=O)O)c4)C3)[C@H](C)[C@H]12 [Ertapenem, reference compound]",776
3,"C[C@@H](O)[C@H]1C(=O)N2C(C(=O)O)=C(S[C@@H]3CN[C@H](C(=O)N(C)C)C3)[C@H](C)[C@H]12 [Meropenem, reference compound]",1350
4,"O=[Se](O)c1ccccc1 [Benzeneseleninic acid, reference compound]",3550
5,"Cc1onc(-c2c(F)cccc2Cl)c1C(=O)N[C@@H]1C(=O)N2[C@@H]1SC(C)(C)[C@@H]2C(=O)O [Flucloxacillin, reference compound]",1050
6,"CC1(C)S[C@@H]2[C@H](NC(=O)[C@H](C(=O)O)c3ccsc3)C(=O)N2[C@H]1C(=O)O [Ticarcillin, reference compound]",44700
7,"CC(=N)N1CC[C@H](SC2=C(C(=O)O)N3C(=O)[C@H]([C@@H](C)O)[C@H]3C2)C1 [Panipenem, reference compound]",1230
8,"CN(C)C(=S)SSC(=S)N(C)C [Thiram, reference compound]",170

# Same assay, conditions: Table S5; for LdtMt2
row,SMILES,LE (ligand efficiency)
1,Cn1c(SCC2=C(C(=O)O)N3C(=O)[C@@H](NC(=O)COc4ccccc4)[C@H]3SC2)n[nH]c1=O [Compound 19],0.35

# Same assay, conditions: Table S5 HTS hits; 30 minute inhibitor pre-incubation; two independent repeats; read-out: pIC50 LdtMt2 (converted)
row,SMILES,IC50
1,Cn1c(SCC2=C(C(=O)O)N3C(=O)[C@@H](NC(=O)COc4ccccc4)[C@H]3SC2)n[nH]c1=O [Compound 19],2400 nM and 2400 to 2820 nM

# Same assay, conditions: Table S10 known cyanating compounds; read-out: pIC50 LdtMt2 (converted)
row,SMILES,IC50 [nM]
1,"N#CSc1ccc([N+](=O)[O-])c(C(=O)O)c1 [Compound 44, 2-nitro-5-thiocyanobenzoic acid, reference compound]",1450

# Same assay, conditions: pIC50 LdtMt2
row,SMILES,IC50 [nM]
1,"CN(C)c1cc[n+](C#N)cc1 [Compound 43, 1-cyano-4-dimethylaminopyridinium tetrafluoroborate, reference compound]",5010

# Same assay, conditions: pIC50 LdtMt2 (mean ± SD)
row,SMILES,IC50
1,"C[C@@H](O)[C@H]1C(=O)N2C(C(=O)O)=C(S[C@@H]3CN[C@H](CNS(N)(=O)=O)C3)[C@H](C)[C@H]12 [Doripenem, reference compound]",5010 nM and 1700 nM
2,"CO/N=C(\C(=O)N[C@@H]1C(=O)N2C(C(=O)O)=C(CSC(=O)c3ccco3)CS[C@H]12)c1csc(N)n1 [Ceftiofur, reference compound]",> 100000 nM
3,"O=C1C=CC(=O)N1 [Maleimide, reference compound]",3980 nM and 2240 nM
4,O=C(NC1CCNCC1)[C@@H]1CC[C@@H]2CN1C(=O)N2OS(=O)(=O)O [Relebactam],> 100000 nM
5,"Cc1onc(-c2ccccc2)c1C(=O)N[C@@H]1C(=O)N2[C@@H]1SC(C)(C)[C@@H]2C(=O)O [Oxacillin, reference compound]",63100 nM
6,"C[C@@H](O)[C@H]1C(=O)N2C(C(=O)O)=C(S[C@@H]3CN[C@H](C(=O)Nc4cccc(C(=O)O)c4)C3)[C@H](C)[C@H]12 [Ertapenem, reference compound]",1580 nM
7,CC(C)(O/N=C(\C(=O)N[C@@H]1C(=O)N2C(C(=O)[O-])=C(C[n+]3ccccc3)CS[C@H]12)c1csc(N)n1)C(=O)O [Ceftazidime],> 100000 nM
8,"C[C@@H](O)[C@H]1C(=O)N2C(C(=O)O)=C(S[C@@H]3CN[C@H](C(=O)N(C)C)C3)[C@H](C)[C@H]12 [Meropenem, reference compound]",10000 nM
9,"O=[Se](O)c1ccccc1 [Benzeneseleninic acid, reference compound]",10000 nM
10,"Cc1onc(-c2c(F)cccc2Cl)c1C(=O)N[C@@H]1C(=O)N2[C@@H]1SC(C)(C)[C@@H]2C(=O)O [Flucloxacillin, reference compound]",25100 nM
11,"CC1(C)S[C@@H]2[C@H](NC(=O)[C@H](C(=O)O)c3ccsc3)C(=O)N2[C@H]1C(=O)O [Ticarcillin, reference compound]",> 100000 nM
12,"CC(=N)N1CC[C@H](SC2=C(C(=O)O)N3C(=O)[C@H]([C@@H](C)O)[C@H]3C2)C1 [Panipenem, reference compound]",316 nM
13,"CO/N=C(\C(=O)N[C@@H]1C(=O)N2C(C(=O)O)=C(COC(C)=O)CS[C@H]12)c1csc(N)n1 [Cefotaxime, reference compound]",> 100000 nM
14,"CC1(C)S[C@@H]2[C@H](NC(=O)C(C(=O)O)c3ccccc3)C(=O)N2[C@H]1C(=O)O (some centres unmarked) [Carbenicillin, reference compound]",> 100000 nM
15,"CN(C)C(=S)SSC(=S)N(C)C [Thiram, reference compound]",158 nM

# Biological target: T2, BlaC (Mycobacterium tuberculosis, UniProt P9WKD3)
# T2 construct: made in house; host or cells: E. coli
# T2 sequence (P9WKD3 35-307): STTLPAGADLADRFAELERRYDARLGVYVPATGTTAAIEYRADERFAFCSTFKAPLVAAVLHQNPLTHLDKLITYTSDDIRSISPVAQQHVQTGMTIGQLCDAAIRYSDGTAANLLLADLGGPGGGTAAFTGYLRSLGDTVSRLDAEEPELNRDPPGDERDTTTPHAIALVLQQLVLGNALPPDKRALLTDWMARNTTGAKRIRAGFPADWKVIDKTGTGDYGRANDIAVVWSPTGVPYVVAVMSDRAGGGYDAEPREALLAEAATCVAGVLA
# Assay: BlaC fluorogenic inhibition assay with FC5 (dose-response)
# Assay type: biochemical
# Conditions: Table S3 tool compounds; 10 min incubation; 2.5 nM BlaC, 2.5 µM FC5; n=4; read-out: pIC50 BlaC (mean ± SD) (converted)
# Method: Two types of controls were used. […] In control 2, the BlaC mixture was substituted with the assay buffer. This mixture was incubated for 30 minutes at room temperature without shaking. […] Data were analysed using ActivityBase (IDBS).
row,SMILES,IC50 [nM]
1,"C[C@@H](O)[C@H]1C(=O)N2C(C(=O)O)=C(S[C@@H]3CN[C@H](CNS(N)(=O)=O)C3)[C@H](C)[C@H]12 [Doripenem, reference compound]",41.7
2,"CO/N=C(\C(=O)N[C@@H]1C(=O)N2C(C(=O)O)=C(CSC(=O)c3ccco3)CS[C@H]12)c1csc(N)n1 [Ceftiofur, reference compound]",> 100000
3,O=C(NC1CCNCC1)[C@@H]1CC[C@@H]2CN1C(=O)N2OS(=O)(=O)O [Relebactam],33100
4,C[C@@H](O)[C@H]1C(=O)N2C(C(=O)O)=C([C@H]3CCCO3)S[C@H]12 [Faropenem],447
5,"Cc1onc(-c2ccccc2)c1C(=O)N[C@@H]1C(=O)N2[C@@H]1SC(C)(C)[C@@H]2C(=O)O [Oxacillin, reference compound]",158
6,"C[C@@H](O)[C@H]1C(=O)N2C(C(=O)O)=C(S[C@@H]3CN[C@H](C(=O)Nc4cccc(C(=O)O)c4)C3)[C@H](C)[C@H]12 [Ertapenem, reference compound]",178
7,CC(C)(O/N=C(\C(=O)N[C@@H]1C(=O)N2C(C(=O)[O-])=C(C[n+]3ccccc3)CS[C@H]12)c1csc(N)n1)C(=O)O [Ceftazidime],39800
8,"C[C@@H](O)[C@H]1C(=O)N2C(C(=O)O)=C(S[C@@H]3CN[C@H](C(=O)N(C)C)C3)[C@H](C)[C@H]12 [Meropenem, reference compound]",141
9,"O=[Se](O)c1ccccc1 [Benzeneseleninic acid, reference compound]",> 100000
10,"Cc1onc(-c2c(F)cccc2Cl)c1C(=O)N[C@@H]1C(=O)N2[C@@H]1SC(C)(C)[C@@H]2C(=O)O [Flucloxacillin, reference compound]",135
11,"CC1(C)S[C@@H]2[C@H](NC(=O)[C@H](C(=O)O)c3ccsc3)C(=O)N2[C@H]1C(=O)O [Ticarcillin, reference compound]",11700
12,"CC(=N)N1CC[C@H](SC2=C(C(=O)O)N3C(=O)[C@H]([C@@H](C)O)[C@H]3C2)C1 [Panipenem, reference compound]",166
13,"CO/N=C(\C(=O)N[C@@H]1C(=O)N2C(C(=O)O)=C(COC(C)=O)CS[C@H]12)c1csc(N)n1 [Cefotaxime, reference compound]",> 100000
14,"CC1(C)S[C@@H]2[C@H](NC(=O)C(C(=O)O)c3ccccc3)C(=O)N2[C@H]1C(=O)O (some centres unmarked) [Carbenicillin, reference compound]",> 100000
15,"CN(C)C(=S)SSC(=S)N(C)C [Thiram, reference compound]",> 100000

# Same assay, conditions: Table S4 HTS validation; 30 minutes inhibitor pre-incubation; n=8; read-out: pIC50 BlaC (mean ± SD) (converted)
row,SMILES,IC50 [nM]
1,"C[C@@H](O)[C@H]1C(=O)N2C(C(=O)O)=C(S[C@@H]3CN[C@H](CNS(N)(=O)=O)C3)[C@H](C)[C@H]12 [Doripenem, reference compound]",14.1
2,O=C(NC1CCNCC1)[C@@H]1CC[C@@H]2CN1C(=O)N2OS(=O)(=O)O [Relebactam],3980
3,C[C@@H](O)[C@H]1C(=O)N2C(C(=O)O)=C([C@H]3CCCO3)S[C@H]12 [Faropenem],468
4,"Cc1onc(-c2ccccc2)c1C(=O)N[C@@H]1C(=O)N2[C@@H]1SC(C)(C)[C@@H]2C(=O)O [Oxacillin, reference compound]",67.6
5,"C[C@@H](O)[C@H]1C(=O)N2C(C(=O)O)=C(S[C@@H]3CN[C@H](C(=O)Nc4cccc(C(=O)O)c4)C3)[C@H](C)[C@H]12 [Ertapenem, reference compound]",67.6
6,CC(C)(O/N=C(\C(=O)N[C@@H]1C(=O)N2C(C(=O)[O-])=C(C[n+]3ccccc3)CS[C@H]12)c1csc(N)n1)C(=O)O [Ceftazidime],12000
7,"C[C@@H](O)[C@H]1C(=O)N2C(C(=O)O)=C(S[C@@H]3CN[C@H](C(=O)N(C)C)C3)[C@H](C)[C@H]12 [Meropenem, reference compound]",40.7
8,"Cc1onc(-c2c(F)cccc2Cl)c1C(=O)N[C@@H]1C(=O)N2[C@@H]1SC(C)(C)[C@@H]2C(=O)O [Flucloxacillin, reference compound]",77.6
9,"CC1(C)S[C@@H]2[C@H](NC(=O)[C@H](C(=O)O)c3ccsc3)C(=O)N2[C@H]1C(=O)O [Ticarcillin, reference compound]",14500
10,"CC(=N)N1CC[C@H](SC2=C(C(=O)O)N3C(=O)[C@H]([C@@H](C)O)[C@H]3C2)C1 [Panipenem, reference compound]",93.3

# Same assay, conditions: Table S5 HTS hits; 30 minute inhibitor pre-incubation; two independent repeats; read-out: pIC50 BlaC (converted)
row,SMILES,IC50 [nM]
1,Cn1c(SCC2=C(C(=O)O)N3C(=O)[C@@H](NC(=O)COc4ccccc4)[C@H]3SC2)n[nH]c1=O [Compound 19],> 100000

# Same assay, conditions: pIC50 BlaC (mean ± SD), Table S3 tool compounds; 10 min incubation; 2.5 nM BlaC, 2.5 µM FC5; n=4
row,SMILES,IC50 [nM]
1,"O=C1C=CC(=O)N1 [Maleimide, reference compound]",> 100000

# Biological target: T1, LdtMt2
# Assay: biochemical
# Assay type: binding
# Design: made in house; host or cells: E. coli
# Conditions: 5 µM LdtMt2, 500 µM inhibitor, SYPRO Orange, 50 mM Tris pH 7.5
# Method: LdtMt2 (5 μM) was incubated with the inhibitor (500 μM) in assay buffer (50 mM tris pH 7.5) for 30 minutes at room temperature in 96-well white PCR plates (25 μL final volume, Starlab). SYPRO Orange (final concentration 6×, according to manufacturer's definition, Invitrogen) was then added and the plate was sealed using a transparent plastic film (Polyolefin StarSeal, Starlab). Fluorescence was monitored (with λex = 492 nm and λem = 610 nm) using a CFX96 Touch Real-Time PCR Detection System (Bio-Rad), while the temperature was increased from 20 to 95 °C in increments of 0.2 °C. Melting temperatures (Tms) were determined using the CFX Maestro Software (Bio-Rad).
row,SMILES,Tm: melting point of LdtMt2 after pre-incubation with the compound [°C]
1,Cn1c(SCC2=C(C(=O)O)N3C(=O)[C@@H](NC(=O)COc4ccccc4)[C@H]3SC2)n[nH]c1=O [Compound 19],42.9 ± 0.09

# Same assay, conditions: read-out: ΔTm: difference in melting point of LdtMt2 relative to unreacted LdtMt2 (43.8 °C)
row,SMILES,ΔTm at 500 µM [°C]
1,Cn1c(SCC2=C(C(=O)O)N3C(=O)[C@@H](NC(=O)COc4ccccc4)[C@H]3SC2)n[nH]c1=O [Compound 19],-0.9
